PubChem BioAssay (NCI)
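These data come from cells grown in 96-well plates and exposed to compound for 48 hours at five concentrations. GI50 is the concentration that inhibits growth by half. TGI denotes the concentration required for complete inhibition of growth.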

Tests used:
Experiment in all cases: NCI-60 cell line screen, 48 h
[1] = tested on: CCRF-CEM leukemia
[2] = tested on: MOLT-4 leukemia
[3] = tested on: MDA-MB-231 breast
[4] = tested on: SR leukemia
[5] = tested on: NCI-H522 lung
[6] = tested on: HL-60(TB) leukemia
[7] = tested on: UO-31 renal
[8] = tested on: M14 melanoma
[9] = tested on: SF-268 CNS
[10] = tested on: MDA-MB-435
[11] = tested on: NCI/ADR-RES ovarian
[12] = tested on: PC-3 prostate
[13] = tested on: UACC-62 melanoma
[14] = tested on: NCI-H23 lung
[15] = tested on: UACC-257 melanoma
[16] = tested on: A498 renal
[17] = tested on: HCC-2998 colon
[18] = tested on: SN12C renal
[19] = tested on: SW-620 colon
[20] = tested on: K-562 leukemia
[21] = tested on: COLO 205 colon
[22] = tested on: SNB-75 CNS
[23] = tested on: RXF 393 renal
[24] = tested on: BT-549 breast
[25] = tested on: 786-0 renal
[26] = tested on: DU-145 prostate
[27] = tested on: SK-OV-3 ovarian
[28] = tested on: NCI-H460 lung
[29] = tested on: A549 NSCLC
[30] = tested on: ACHN renal
[31] = tested on: HOP-62 NSCLC
[32] = tested on: OVCAR-5 ovarian
[33] = tested on: NCI-H226 lung
[34] = tested on: U251 CNS
[35] = tested on: CAKI-1 renal
[36] = tested on: HOP-92 NSCLC
[37] = tested on: SK-MEL-5 melanoma
[38] = tested on: SF-539 CNS
[39] = tested on: SK-MEL-28 melanoma
[40] = tested on: HS 578T breast
[41] = tested on: T-47D breast
[42] = tested on: IGROV1 ovarian
[43] = tested on: HCT-116 colon
[44] = tested on: MCF7 breast
[45] = tested on: SK-MEL-2 melanoma
[46] = tested on: TK-10 renal
[47] = tested on: OVCAR-3 ovarian
[48] = tested on: MALME-3M melanoma
[49] = tested on: OVCAR-8 ovarian
[50] = tested on: EKVX NSCLC
[51] = tested on: HT29 colon
[52] = tested on: HCT-15 colon
[53] = tested on: SNB-19 CNS
[54] = tested on: SF-295 CNS
[55] = tested on: RPMI-8226 leukemia
[56] = tested on: OVCAR-4 ovarian
[57] = tested on: LOX IMVI melanoma
[58] = tested on: KM12 colon

c1ccc(-n2nnnc2-c2cccc3ccccc23)cc1
GI50 [1]: 0.447 µM
TGI [1]: > 100 µM
GI50 [2]: 0.657 µM
TGI [2]: > 100 µM
GI50 [3]: 1.34 µM
TGI [3]: 28.8 µM
GI50 [4]: 0.438 µM
TGI [4]: 74.4 µM
GI50 [5]: 0.272 µM
TGI [5]: 2.71 µM
GI50 [6]: 0.365 µM
TGI [6]: 1.7 µM
GI50 [7]: 2.16 µM
TGI [7]: 61.1 µM
GI50 [8]: 0.365 µM
TGI [8]: 8.81 µM
GI50 [9]: 0.833 µM
TGI [9]: > 73.1 µM
GI50 [10]: 0.121 µM
TGI [10]: 0.489 µM
GI50 [11]: 0.279 µM
TGI [11]: 1.61 µM
GI50 [12]: 1.14 µM
TGI [12]: > 100 µM
GI50 [13]: 0.666 µM
TGI [13]: > 100 µM
GI50 [14]: 1.28 µM
TGI [14]: > 100 µM
GI50 [15]: 27.8 µM
TGI [15]: > 100 µM
GI50 [16]: 0.704 µM
TGI [16]: > 55.3 µM
GI50 [17]: 1.12 µM
TGI [17]: 10.3 µM
GI50 [18]: 1.33 µM
TGI [18]: > 100 µM
GI50 [19]: 0.453 µM
TGI [19]: > 100 µM
GI50 [20]: 0.377 µM
TGI [20]: > 100 µM
GI50 [21]: 0.49 µM
TGI [21]: 3.83 µM
GI50 [22]: 1.55 µM
TGI [22]: > 27.7 µM
GI50 [23]: 1.01 µM
TGI [23]: > 20.1 µM
GI50 [24]: 0.755 µM
TGI [24]: > 61.2 µM
GI50 [25]: 2.01 µM
TGI [25]: 53.2 µM
GI50 [26]: 0.92 µM
TGI [26]: 6.86 µM
GI50 [27]: 0.908 µM
TGI [27]: 13.5 µM
GI50 [28]: 0.442 µM
TGI [28]: > 42.4 µM
GI50 [29]: 1.04 µM
TGI [29]: > 100 µM
GI50 [30]: 0.84 µM
TGI [30]: > 100 µM
GI50 [31]: 0.765 µM
TGI [31]: > 100 µM
GI50 [32]: 3.27 µM
TGI [32]: > 100 µM
GI50 [33]: 15.5 µM
TGI [33]: > 100 µM
GI50 [34]: 0.536 µM
TGI [34]: > 48.1 µM
GI50 [35]: 0.465 µM
TGI [35]: > 100 µM
GI50 [36]: 1.19 µM
TGI [36]: 24.3 µM
GI50 [37]: 0.462 µM
TGI [37]: 20.2 µM
GI50 [38]: 0.445 µM
TGI [38]: 3.43 µM
TGI [39]: > 100 µM
GI50 [40]: 1.36 µM
TGI [40]: > 100 µM
GI50 [41]: 0.461 µM
TGI [41]: > 100 µM
GI50 [42]: 1.56 µM
TGI [42]: > 100 µM
GI50 [43]: 0.401 µM
TGI [43]: 24.5 µM
GI50 [44]: 0.562 µM
TGI [44]: > 100 µM
GI50 [45]: 3.68 µM
TGI [45]: > 63.1 µM
GI50 [46]: 1.45 µM
TGI [46]: > 100 µM
GI50 [47]: 0.257 µM
TGI [47]: 0.627 µM
GI50 [48]: 0.635 µM
TGI [48]: > 100 µM
GI50 [49]: 1.48 µM
TGI [49]: > 100 µM
GI50 [50]: 2.42 µM
TGI [50]: > 100 µM
GI50 [51]: 0.357 µM
TGI [51]: > 20.3 µM
GI50 [52]: 0.348 µM
TGI [52]: > 100 µM
GI50 [53]: 0.859 µM
TGI [53]: > 100 µM
GI50 [54]: 0.395 µM
TGI [54]: 19.9 µM
GI50 [55]: 0.579 µM
TGI [55]: 45.7 µM
GI50 [56]: 11.4 µM
TGI [56]: > 100 µM
GI50 [57]: 0.498 µM
TGI [57]: 24.8 µM
GI50 [58]: 0.396 µM
TGI [58]: 22.8 µM

Cn1cc(-c2cnc3ccc4ccc(CS(=O)(=O)NCc5ccccn5)cc4c(=O)c3c2)cn1
GI50 [1]: 9.08 µM
TGI [1]: > 93.8 µM
GI50 [2]: 9.09 µM
TGI [2]: 52.5 µM
GI50 [3]: 19.6 µM
TGI [3]: > 68.4 µM
GI50 [4]: 3.17 µM
TGI [4]: > 100 µM
GI50 [5]: 22 µM
TGI [5]: > 95.9 µM
GI50 [6]: 9.15 µM
TGI [6]: 41.8 µM
GI50 [7]: 12.6 µM
TGI [7]: > 100 µM
GI50 [8]: 11.9 µM
TGI [8]: 33.6 µM
GI50 [9]: 20.9 µM
TGI [9]: > 100 µM
GI50 [10]: 3.33 µM
TGI [10]: 27.5 µM
GI50 [11]: 23.5 µM
TGI [11]: > 100 µM
GI50 [12]: 31.3 µM
TGI [12]: > 100 µM
GI50 [13]: 12.5 µM
TGI [13]: 39.4 µM
GI50 [14]: 16.2 µM
TGI [14]: > 84.7 µM
GI50 [15]: 15 µM
TGI [15]: 32.2 µM
GI50 [16]: 18.1 µM
TGI [16]: > 55.6 µM
GI50 [17]: 13.4 µM
TGI [17]: 27.9 µM
GI50 [18]: 19 µM
TGI [18]: > 93.3 µM
GI50 [19]: 15.6 µM
TGI [19]: > 100 µM
GI50 [20]: 4.78 µM
TGI [20]: > 100 µM
GI50 [21]: 18.6 µM
TGI [21]: > 55.8 µM
GI50 [22]: 6.45 µM
TGI [22]: 47.8 µM
GI50 [23]: 12.9 µM
TGI [23]: 35.1 µM
GI50 [24]: 12.4 µM
TGI [24]: 42.6 µM
GI50 [25]: 27 µM
TGI [25]: > 100 µM
GI50 [26]: 33.7 µM
TGI [26]: > 100 µM
GI50 [27]: 26.5 µM
TGI [27]: > 100 µM
GI50 [28]: 15.7 µM
TGI [28]: 49.7 µM
GI50 [29]: 25.2 µM
TGI [29]: > 100 µM
GI50 [30]: 16.4 µM
TGI [30]: > 100 µM
GI50 [31]: 17.6 µM
TGI [31]: > 100 µM
GI50 [32]: 29.5 µM
TGI [32]: > 100 µM
GI50 [33]: 14.8 µM
TGI [33]: 36 µM
GI50 [34]: 21.6 µM
TGI [34]: > 100 µM
GI50 [35]: 14.2 µM
TGI [35]: > 100 µM
GI50 [36]: 6.19 µM
TGI [36]: > 77.3 µM
GI50 [37]: 11.3 µM
TGI [37]: 24 µM
GI50 [38]: 16.9 µM
TGI [38]: 41.2 µM
GI50 [39]: 15 µM
TGI [39]: 35.4 µM
GI50 [40]: 14 µM
TGI [40]: > 100 µM
GI50 [41]: 16.4 µM
TGI [41]: > 93 µM
GI50 [42]: 22.1 µM
TGI [42]: > 100 µM
GI50 [43]: 16.3 µM
TGI [43]: 54.1 µM
GI50 [44]: 7.7 µM
TGI [44]: > 100 µM
GI50 [45]: 11.8 µM
TGI [45]: 53.4 µM
GI50 [46]: 21.6 µM
TGI [46]: > 83.1 µM
GI50 [47]: 14.6 µM
TGI [47]: 45.8 µM
GI50 [48]: 21.3 µM
TGI [48]: 73.1 µM
GI50 [49]: 18.8 µM
TGI [49]: > 100 µM
GI50 [50]: 44.9 µM
TGI [50]: > 100 µM
GI50 [51]: 15.1 µM
TGI [51]: > 100 µM
GI50 [52]: 5.67 µM
TGI [52]: 37.1 µM
GI50 [53]: 26.6 µM
TGI [53]: > 100 µM
GI50 [54]: 3.61 µM
TGI [54]: > 100 µM
GI50 [55]: 11.6 µM
TGI [55]: > 75.2 µM
GI50 [56]: 10.3 µM
TGI [56]: 68.1 µM
GI50 [57]: 13.5 µM
TGI [57]: 35.3 µM
GI50 [58]: 10.5 µM
TGI [58]: 52 µM
